“Also recorded” adds a separate entry of the source.
Tests used:
[1] = system: HeLa (human cervical cancer) cell line; test: Cell Titer-Glo luminescence-based cell growth inhibition assay, HeLa; conditions: HeLa cells, 72 hours incubation, spread in brackets
Experimental: (§1) The cell growth inhibition effects of gold(I) complexes 1-4 and cisplatin were measured by the Cell Titer-Glo® luminescence-based assay against the A549 (human lung carcinoma), HeLa (human cervical cancer), and HepG2 (human liver cancer) cell lines according to manufacturer's protocol. Briefly, the cell suspensions were added to each well of 384-w plate at a suitable density (total volume of 40 μL). The margin wells of plate were filled with PBS buffer. The gold(I) complexes were added at various concentrations in triplicate (10 μL solutions of the complex added to the plate), then the plate was incubated for 72 hours in 5% CO2 incubator at 37° C. After that the Cell Titer reagent was added to each tested well and stirred for 2 minutes on an orbital shaker. […] Luminescence signals were measured on PHERAstar Plus. […] The potential effect of the testing complexes on cell growth inhibition expressed as IC50 values was calculated by the formula below: Cell growth Inhibition %=100-100*(Luminescencecomplex)/(LuminescenceDMSO) Cell viability %=100*(Luminescencecomplex)/(LuminescenceDMSO)
(§2) The gold(I) complexes 1-4 and cisplatin were examined for their cell growth inhibition effects against A549, HeLa, and HepG2 human cancer cell lines using Cell Titer-Glo® luminescence-based assay. […]

[2] = system: HepG2 (human liver cancer) cell line; test: Cell Titer-Glo luminescence-based cell growth inhibition assay, HepG2; conditions: HepG2 cells, 72 hours incubation, spread in brackets
Experimental: as §1, §2

[3] = system: A549, HeLa, and HepG2 human cancer cell lines; test: Cell Titer-Glo cell growth inhibition, summary statements over all three cell lines; assay type: cell-based; conditions: with respect to cisplatin
Experimental: as §1, §2

SMILES | IC50 [1] [µM] | IC50 [2] [µM] | inhibition of cell proliferation (in words) [3]
N.N.[Cl][Pt][Cl] [Cisplatin, cisplatin] | 21.4 | 9.6 | 
N[C@@H]1CCCC[C@H]1[PH]([Au][Cl])(c1ccccc1)c1ccccc1 [gold(I) complex 1, [Au(ACP)Cl]] |  |  | excellent inhibition of cell proliferation
CN(C)C(=S)[S][Au][PH](c1ccccc1)(c1ccccc1)[C@@H]1CCCC[C@H]1N [gold(I) complex 2] |  |  | excellent inhibition of cell proliferation; also recorded: best inhibition among the three

Source: US11142539B2, “Phosphinogold(I) complexes and methods of treating cancer” (King Fahd University of Petroleum and Minerals, priority 2020, dated 2021)
